Data taken from article PMC5891061, “Electrophysiological mechanisms of vandetanib-induced cardiotoxicity: Comparison of action potentials in rabbit Purkinje fibers and pluripotent stem cell-derived cardiomyocytes” (PLoS ONE, 2018).

Legend:
KCNJ2 (IK1) = target: T1, KCNJ2 (IK1) (Homo sapiens, UniProt P63252); assay: cell-based
T1 sequence (P63252 1-427): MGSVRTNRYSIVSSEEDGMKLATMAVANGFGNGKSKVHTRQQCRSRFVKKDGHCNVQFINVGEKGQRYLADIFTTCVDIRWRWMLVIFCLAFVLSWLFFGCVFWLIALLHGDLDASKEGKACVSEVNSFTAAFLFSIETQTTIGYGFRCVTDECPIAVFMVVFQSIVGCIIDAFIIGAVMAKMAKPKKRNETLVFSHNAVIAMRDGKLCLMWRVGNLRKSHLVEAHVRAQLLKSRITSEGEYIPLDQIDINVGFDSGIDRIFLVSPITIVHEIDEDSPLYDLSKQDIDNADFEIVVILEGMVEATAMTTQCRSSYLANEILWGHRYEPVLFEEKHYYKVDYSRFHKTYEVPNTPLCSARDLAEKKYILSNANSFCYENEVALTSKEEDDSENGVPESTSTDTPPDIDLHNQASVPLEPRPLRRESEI
From the text: For various aspects of cardiac ion channel study, human embryonic kidney (HEK293; ATCC, Manassas, VA, USA) cells were transiently transfected using lipofectAmin2000 (Gibco BRL, New York, NY, USA) according to the manufacturer’s instructions. The hERG (human ether-ago-go-related gene corresponding to IKr), KCNQ1/KCNE1 (the gene corresponding to IKs), KCNJ2 (the gene corresponding to IK1) or SCN5A (the gene corresponding to INa) cDNA was co-transfected with green fluorescence protein, the surface marker protein, to allow assessment of the transfection efficiency. For the calcium current, enzymatically isolated single rat ventricular myocytes were used. Briefly, the hearts were rapidly excised from anaesthetized Sprague–Dawley rats (250–350 g) and perfused via the aorta on a Langendorff apparatus with an oxygenated normal Tyrode (NT) solution for 5 min. […]
(§1) The external solution for recording the IhERG, IKs and INa channel currents was NT solution. […] The calcium current was measured in naïve rat ventricular myocytes, cells were superfused with an external solution that consisted of (in mM): 137 choline-Cl, 5 CsCl, 0.5 MgCl2, 2 4-AP, 10 HEPES, 10 glucose and 1.8 CaCl2 (pH 7.4 with NaOH), whereas the intracellular solution used to fill the pipette had the following ionic solution (in mM): 20 CsCl, 100 Cs-aspartate, 10 EGTA, 10 HEPES, 20 TEA-Cl, 5 Mg-ATP (pH 7.25 with KOH). […]

INa in hiPSC-CMs = INa in hiPSC-CMs (Homo sapiens, UniProt Q14524); assay: INa current in hiPSC-CMs (voltage clamp); type: cell-based; set-up: INa current: unit not given here
INa in hiPSC-CMs, sequence (Q14524 212-1075 limits assumed): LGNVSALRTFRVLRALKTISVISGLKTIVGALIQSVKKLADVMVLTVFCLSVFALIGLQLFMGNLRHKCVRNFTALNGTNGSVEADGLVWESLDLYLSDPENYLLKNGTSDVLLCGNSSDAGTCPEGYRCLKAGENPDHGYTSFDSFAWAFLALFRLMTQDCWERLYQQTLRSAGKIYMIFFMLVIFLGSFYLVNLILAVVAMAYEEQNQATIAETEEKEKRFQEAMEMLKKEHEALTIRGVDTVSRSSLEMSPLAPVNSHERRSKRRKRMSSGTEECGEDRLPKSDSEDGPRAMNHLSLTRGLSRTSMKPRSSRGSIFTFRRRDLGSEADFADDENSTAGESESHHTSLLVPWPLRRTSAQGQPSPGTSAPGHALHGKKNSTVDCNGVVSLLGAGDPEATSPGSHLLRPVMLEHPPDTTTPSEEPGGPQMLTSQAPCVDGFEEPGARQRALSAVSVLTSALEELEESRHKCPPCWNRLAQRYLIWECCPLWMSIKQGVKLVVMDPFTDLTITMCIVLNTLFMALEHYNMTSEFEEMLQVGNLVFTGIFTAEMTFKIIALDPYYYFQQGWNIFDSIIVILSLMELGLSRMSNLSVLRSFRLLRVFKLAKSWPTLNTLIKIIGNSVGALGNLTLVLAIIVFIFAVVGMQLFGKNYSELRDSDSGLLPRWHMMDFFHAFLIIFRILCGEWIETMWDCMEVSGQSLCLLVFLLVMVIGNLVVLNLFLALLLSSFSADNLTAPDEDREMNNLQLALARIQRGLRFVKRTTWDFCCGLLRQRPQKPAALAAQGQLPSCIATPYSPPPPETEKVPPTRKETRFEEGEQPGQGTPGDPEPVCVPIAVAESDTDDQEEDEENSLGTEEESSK
INa in hiPSC-CMs, sequence (Q14524 1131-2016 limits assumed): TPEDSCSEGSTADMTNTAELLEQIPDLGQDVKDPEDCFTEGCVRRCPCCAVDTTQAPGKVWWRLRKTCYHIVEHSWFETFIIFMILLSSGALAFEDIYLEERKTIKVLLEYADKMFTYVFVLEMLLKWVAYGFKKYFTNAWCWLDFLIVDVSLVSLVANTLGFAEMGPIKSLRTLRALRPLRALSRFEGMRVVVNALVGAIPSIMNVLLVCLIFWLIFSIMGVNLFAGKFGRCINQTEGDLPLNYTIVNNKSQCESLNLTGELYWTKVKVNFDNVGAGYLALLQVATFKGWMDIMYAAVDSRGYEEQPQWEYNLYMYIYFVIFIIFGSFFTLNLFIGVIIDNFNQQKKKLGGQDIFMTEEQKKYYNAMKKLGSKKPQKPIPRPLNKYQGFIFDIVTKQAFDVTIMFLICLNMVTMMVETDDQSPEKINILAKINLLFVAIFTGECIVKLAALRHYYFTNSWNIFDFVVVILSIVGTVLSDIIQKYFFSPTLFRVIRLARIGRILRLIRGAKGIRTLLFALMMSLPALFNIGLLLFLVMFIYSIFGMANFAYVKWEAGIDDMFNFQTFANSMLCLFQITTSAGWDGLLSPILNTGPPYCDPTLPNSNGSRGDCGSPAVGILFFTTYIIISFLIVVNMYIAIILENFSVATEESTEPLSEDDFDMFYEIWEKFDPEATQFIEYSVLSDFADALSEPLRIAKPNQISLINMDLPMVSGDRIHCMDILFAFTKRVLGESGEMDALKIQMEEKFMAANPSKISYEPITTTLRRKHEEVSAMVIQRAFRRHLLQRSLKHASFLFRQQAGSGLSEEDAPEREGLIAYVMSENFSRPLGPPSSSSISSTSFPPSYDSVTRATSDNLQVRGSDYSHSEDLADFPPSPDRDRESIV

[1] = cited from earlier work
KCNQ1/KCNE1 (IKs) = target: T2, KCNQ1/KCNE1 (IKs) (Homo sapiens, UniProt P51787); assay: Whole-cell patch clamp, IKs in KCNQ1/KCNE1-cotransfected HEK293 cells; type: cell-based; details: for IKs current: HEK293
T2 construct: expressed in transfected cells; host or cells: HEK293
From the text: For various aspects of cardiac ion channel study, human embryonic kidney (HEK293; ATCC, Manassas, VA, USA) cells were transiently transfected using lipofectAmin2000 (Gibco BRL, New York, NY, USA) according to the manufacturer’s instructions. The hERG (human ether-ago-go-related gene corresponding to IKr), KCNQ1/KCNE1 (the gene corresponding to IKs), KCNJ2 (the gene corresponding to IK1) or SCN5A (the gene corresponding to INa) cDNA was co-transfected with green fluorescence protein, the surface marker protein, to allow assessment of the transfection efficiency. For the calcium current, enzymatically isolated single rat ventricular myocytes were used. Briefly, the hearts were rapidly excised from anaesthetized Sprague–Dawley rats (250–350 g) and perfused via the aorta on a Langendorff apparatus with an oxygenated normal Tyrode (NT) solution for 5 min. To clear the blood, then perfused with Ca^2+-free normal Tyrode solution for 3 min. Next, the heart was perfused with enzyme solution containing 0.6 mg/mL collagenase (Worthington Biomedical Corp., Lakewood, NJ, USA) for 30–40 min. Finally, this enzyme-containing solution was washed out for 5 min. with a high-K^+ and low-Cl^-) Kraft-Bruhe solution. Following the isolation procedure, the left ventricle was dissected out and agitated mechanically with a fire-polished Pasteur pipette in Kraft-Bruhe solution to obtain single myocytes. The isolated myocytes were stored at 4°C until use.
as §1, with “solution. The internal solution for IhERG contained the following (in mM): 130 KCl, 5 EGTA, 10 HEPES, 1 MgCl2, 5 Mg-ATP (pH 7.25 with KOH), and for IKs in the KCNQ1/KCNE1-cotransfected HEK293 cells, 150 KCl, 5 EGTA, 10 HEPES, 2 MgCl2, 1 CaCl2 and 5 Na2-ATP (pH adjusted 7.25 with KOH).” for “solution.”
pCLAMP (Axon Instruments, Foster City, CA, USA), Origin 8 (OriginLab Corp, Northampton, MA, USA), and Excel (Microsoft, Redmond, WA, USA) were used for data acquisition and analysis. The concentration–response relationships for drug-induced blockage were calculated using SigmaPlot (Systat Software, San Jose, CA, USA). […] Statistical significance was determined using the Student’s t-test and one-way ANOVA with post hoc testing using Dunnett’s method; p < 0.05 was considered to indicate statistical significance. […]

rabbit Purkinje fibers = assay: Action potential recording in rabbit Purkinje fiber; details: for APA / APD50 / APD90 / RMP / Vmax: 1 Hz pacing

IC50 (KCNJ2 (IK1)): 94.5 ± 4.57 µM | IC50 (INa in hiPSC-CMs): 2.72 µM | INa current (INa in hiPSC-CMs; 1 μM): -4046.1 ± 53.7 | INa current (INa in hiPSC-CMs; 3 μM): -2284.0 ± 79.5 | INa current (INa in hiPSC-CMs; 10 μM): -1205.7 ± 89.8 | INa current (INa in hiPSC-CMs; 30 μM): -643.2 ± 33.6 | IKs current (KCNQ1/KCNE1 (IKs); 10 μM): 840.7 ± 180.3 | IKs current (KCNQ1/KCNE1 (IKs); 30 μM): 406.5 ± 113.7 | IKs current (KCNQ1/KCNE1 (IKs); 100 μM): 108.2 ± 8.3 | IC50 (KCNQ1/KCNE1 (IKs); HEK293 cells): 28 ± 1.81 µM
Structure (SMILES): COc1cc2c(Nc3ccc(Br)cc3F)ncnc2cc1OCC1CCN(C)CC1 [Vandetanib]
Incidence of asymptomatic QTc prolongation ([1]; Japanese phase I trial): 61% | Patients with side effects such as diarrhea/colitis, rash, nausea, and hypertension ([1]; patients): > 20% | Patients who developed asymptomatic QTc prolongation ([1]; phase I trial in solid tumors): 9% | Incidence of asymptomatic QT prolongation ([1]; phase II trials): 15% | APA (rabbit Purkinje fibers; 0.3 μM): 118.0 ± 1.9 mV | APD50 (rabbit Purkinje fibers; 0.3 μM): 218.9 ± 20.3 ms | APD90 (rabbit Purkinje fibers; 0.3 μM): 300.1 ± 21.0 ms | RMP (rabbit Purkinje fibers; 0.3 μM): -82.2 ± 0.4 mV | Vmax (rabbit Purkinje fibers; 0.3 μM): 380.9 ± 82.9 V/s | APD90 increase compared to vehicle control (rabbit Purkinje fibers; 1 μM): 31% | APA (rabbit Purkinje fibers; 1 μM): 118.1 ± 2.1 mV | APD90 (rabbit Purkinje fibers; 1 μM): 354.0 ± 25.2 ms | RMP (rabbit Purkinje fibers; 1 μM): -82.2 ± 1.2 mV | Vmax (rabbit Purkinje fibers; 1 μM): 379.9 ± 91.1 V/s | APD50 increase compared to vehicle control (rabbit Purkinje fibers; 3 μM): 38.9% | APD90 increase compared to vehicle control (rabbit Purkinje fibers; 3 μM): 55.6% | APA (rabbit Purkinje fibers; 3 μM): 118.1 ± 1.5 mV | APD50 (rabbit Purkinje fibers; 3 μM): 289.6 ± 21.4 ms | APD90 (rabbit Purkinje fibers; 3 μM): 417.1 ± 20.6 ms | RMP (rabbit Purkinje fibers; 3 μM): -82.3 ± 2.5 mV | Vmax (rabbit Purkinje fibers; 3 μM): 382.8 ± 64.6 V/s | Effect on RMP, APA, and Vmax (rabbit Purkinje fibers; concentrations up to 3 μM): did not significantly alter
